Patent US10208067B2, “Compounds for treating spinal muscular atrophy” (Hoffmann-La Roche Inc., priority 2015, dated 2019)

Columns and labels:
[1] = test system: full length SMN2 minigene mRNA (HEK293H cells stably transfected with SMN2-A minigene); test: RT-qPCR assay for SMN2 minigene pre-mRNA splicing in cultured cells; assay type: cell-based; conditions: Homo sapiens, HEK293-H, Table 3 (title: production of full length SMN2 minigene mRNA), 24 hours, read-out: EC1.5x SMN protein
[2] = test system: SMN protein in SMA patient fibroblast cells (GM03813); test: SMN protein assay (HTRF) in cultured cells; assay type: cell-based; conditions: Homo sapiens, SMA Type 1 patient fibroblasts, 48 hours; for EC (1.5-fold): concentration producing 1.5 times SMN protein vs vehicle, read-out: EC1.5x SMN protein; for maximal fold induction: relative to vehicle control, read-out: max. fold increase of SMN protein
Protocol: The SMN HTRF (homogeneous time resolved fluorescence) assay is used to quantify the level of SMN protein in SMA patient fibroblast cells treated with test compounds. Materials used and respective sources are listed below in Table 4.
Cells are thawed and cultured in DMEM-10% FBS for 72 hours. Cells are trypsinized, counted and re-suspended to a concentration of 25,000 cells/mL in DMEM-10% FBS. The cell suspensions are plated at 5,000 cells per well in a 96 well microtiter plate and incubated for […]. […] 1 μL of test compound solution is transferred to cell-containing wells and cells are incubated for 48 hours in a cell culture incubator (37° C., 5% CO2, 100% relative humidity). Triplicate samples are set up for each test compound concentration. After 48 hours, the supernatant is removed from the wells and 25 μL of the RIPA lysis buffer, containing protease inhibitors, is added to the wells and incubated with shaking at room temperature for 1 hour. 25 μL of the diluent is added and then 35 μL of the resulting lysate is transferred to a 384-well plate, where each well contains 5 μL of the antibody solution (1:100 dilution of anti-SMN d2 and anti-SMN cryptate in SMN reconstitution buffer). The plate is centrifuged for 1 minute to bring the solution to the bottom of the wells, then incubated overnight at room temperature. Fluorescence for each well of the plate at 665 nm and 620 nm is measured on an EnVision multilabel plate reader (Perkin-Elmer).
The normalized fluorescence signal is calculated for each sample, Blank and vehicle control well by dividing the signal at 665 nm by the signal at 620 nm. Normalizing the signal accounts for possible fluorescence quenching due to the matrix effect of the lysate. The ΔF value (a measurement of SMN protein abundance as a percent value) for each sample well is calculated by subtracting the normalized average fluorescence for the Blank control wells from the normalized fluorescence for each sample well, then dividing this difference by the normalized average fluorescence for the Blank control wells and multiplying the resulting value by 100. The ΔF value for each sample well represents the SMN protein abundance from test compound-treated samples. The ΔF value for each sample well is divided by the ΔF value for the vehicle control wells to calculate the fold increase in SMN protein abundance relative to the vehicle control. Table 5 provides EC1-5× concentrations for SMN protein expression that was obtained from the 7-point concentration data generated according to the above procedure for particular compounds of the present invention.
Table 6 provides the maximum fold increase of SMN protein that was obtained from the 7-point concentration data generated according to the above procedure for particular compounds of the present invention

Structure (SMILES)	EC (1.5-fold) [1] [µM]	EC (1.5-fold) [2] [µM]	maximal fold induction [2]
Cc1nc2ccc(-c3cc(=O)n4cc(N5CCN[C@@H](C)C5)cc(C)c4n3)nn2n1 [Example 45, 9-methyl-7-[(3S)-3-methylpiperazin-1-yl]-2-(2-methyl-[1,2,4]triazolo[1,5-b]pyridazin-6-yl)pyrido[1,2-a]pyrimidin-4-one]	0.0008	0.009	2.04
Cc1nc2ccc(-c3cc(=O)n4cc(N5CC6(CN(C)C6)C5)ccc4n3)nn2n1 [Example 46, 7-(6-methyl-2,6-diazaspiro[3.3]heptan-2-yl)-2-(2-methyl-[1,2,4]triazolo[1,5-b]pyridazin-6-yl)pyrido[1,2-a]pyrimidin-4-one]	0.003	0.0314	1.75
Cc1nc2ccc(-c3cc(=O)n4cc(N5C[C@@H]6C[C@H]7CNC[C@]76C5)ccc4n3)nn2n1 [Example 47, 7-((3aR,4aR,7aS)-hexahydro-1H-cyclobuta[1,2-c:1,4-c′]dipyrrol-2(3H)-yl)-2-(2-methyl-[1,2,4]triazolo[1,5-b]pyridazin-6-yl)-4H-pyrido[1,2-a]pyrimidin-4-one]	0.0041	0.0249	1.87
Cc1nc2ccc(-c3cc(=O)n4cc(N5CC6(CCNC6)C5)cc(C)c4n3)nn2n1 [Example 48, 7-(2,7-diazaspiro[3.4]octan-2-yl)-9-methyl-2-(2-methyl-[1,2,4]triazolo[1,5-b]pyridazin-6-yl)pyrido[1,2-a]pyrimidin-4-one]	0.168	1.32	1.68
